Publication PMC5601360 (Journal of Medicinal Chemistry, 2017)

Key:
[1] = system: acetic acid-induced writhing in CD1 mice; experiment: Acetic acid-induced writhing assay in mice after sc administration; assay type: in vivo; settings: for ED50: Mus musculus, 0.5 h, CD1 mice, inhibition of writhing at 30 min after drug administration, read-out: antinociceptive ED50 (95% CI)
Method: Male CD1 mice (30–35 g, 6–8 weeks old) were obtained from the Center of Biomodels and Experimental Medicine (CBEM) (Innsbruck, Austria) or Charles River (Sulzfeld, Germany). Mice were group-housed in a temperature controlled room with a 12 h light/dark cycle and with free access to food and water. All animal studies were conducted in accordance with ethical guidelines and animal welfare standards according to Austrian regulations for animal research and were approved by the Committee of Animal Care of the Austrian Federal Ministry of Science and Research. Solutions of test compounds were prepared as 1% DMSO solutions in sterile physiological 0.9% saline and further diluted to working doses in saline solution. Test compounds or vehicle (saline) were administered by sc route in a volume of 10 μL/1 g of body weight. All doses are expressed in terms of salts. Separate groups of mice received the respective dose of compound, and individual mice were only used once for behavioral testing. Each experimental group included at least five animals.
Writhing was induced in male CD1 mice by intraperitoneal (ip) injection of a 0.6% acetic acid aqueous solution as described previously.[9a] Groups of mice were administered sc different doses of test compound or saline (control), and then 5 min prior to testing (25 min after drug or saline) each animal received an ip injection of acetic acid solution. Each mouse was placed in individual transparent Plexiglas chambers, and the number of writhes was counted during a 10 min observation period. […] For the antagonism studies, nor-BNI (20 mg/kg) was sc administered 24 h before 2 (5 mg/kg) and 17 (10 mg/kg) was sc administered 15 min before U50,488 (2 mg/kg).

human KOP receptor [2] = target: T1, human KOP receptor (Homo sapiens, UniProt P41145); experiment: [35S]GTPγS binding assay using CHO-hKOP cell membranes; assay type: biochemical; settings: for EC50: CHO-hKOP membranes, mean ± SEM; for Emax: read-out: [35S]GTPγS KOP % stim
T1 construct: expressed in transfected cells; host or cells: CHO-hKOP cells (gift of Dr. Lawrence Toll, SRI International)
Method: The binding of [^35S]GTPγS to membranes from CHO cells stably expressing human KOP receptors (CHO-hKOP cells) was conducted according to the published procedures.[9a],[9b] CHO-hKOP cell membranes were prepared in buffer A (20 mM HEPES, 10 mM MgCl2, and 100 mM NaCl, pH 7.4). Cell membranes (8–15 μg) in buffer A were incubated with 0.05 nM [^35S]GTPγS, 10 μM GDP, and various concentrations of test compound in a final volume of 1 mL for 60 min at 25 °C. Nonspecific binding was determined using 10 μM GTPγS, and the basal binding was determined in the absence of test ligand. Samples are filtered over glass fiber filters and counted as described for binding assays. […] To determine the KOP antagonist activity, a concentration–response curve for U69,593 was obtained by assessing the [^35S]GTPγS binding to CHO-hKOP cell membranes in the presence or absence of test compound, as previously described.[9b] For each compound, the Schild analysis was conducted, utilizing a full agonist–dose response curve in the presence of at least two concentrations of the antagonist. The equilibrium dissociation constant (Ke) was calculated from the equation Ke = [a]/(DR – 1), where “a” is the concentration of antagonist and DR the virtual shift of the agonist concentration–response curve to the right in the presence of a given concentration of antagonist. All experiments were performed in duplicate and repeated at least three times.

human DOP receptor = target: T2, human DOP receptor (Homo sapiens, UniProt P41143); experiment: Competition binding assay, CHO-hDOP cell membranes, [3H]diprenorphine; settings: mean ± SEM, read-out: receptor binding affinity Ki DOP
T2 construct: expressed in transfected cells; host or cells: CHO-hDOP cells (gift of Dr. Lawrence Toll, SRI International)
Method: (§1) CHO cells stably expressing recombinant human KOP, MOP, or DOP receptors (CHO-hKOP, CHO-hMOP, and CHO-hDOP cell lines) were kindly provided by Dr. Lawrence Toll (SRI International, Menlo Park, CA). The CHO-hKOP cell line was maintained in Dulbecco’s Minimal Essential Medium (DMEM) supplemented with fetal bovine serum (FBS, 10%), penicillin/streptomycin (0.1%), L-glutamine (2 mM), and geneticin (400 μg/mL). The CHO-hMOP and CHO-hDOP cell lines were maintained in DMEM/Ham’s F-12 medium supplemented with FBS (10%), penicillin/streptomycin (0.1%), L-glutamine (2 mM), and geneticin (400 μg/mL). Cell cultures were maintained at 37 °C in 5% CO2 humidified air.
(§2) . Nonspecific binding was determined using 1–10 μM of the unlabeled counterpart of each radioligand. Assays were performed in 50 mM Tris-HCl buffer (pH 7.4) in a final volume of 1 mL. Cell membranes (15–20 μg) were incubated with the appropriate radioligand and various concentrations of test compound for 60 min at 25 °C. After incubation, reactions were terminated by rapid filtration through Whatman glass fiber filters. Filters were washed three times with 5 mL of ice-cold 50 mM Tris-HCl buffer (pH 7.4) using a Brandel M24R cell harvester (Gaithersburg, MD). Radioactivity retained on the filters was counted by liquid scintillation counting using a Beckman Coulter LS6500 (Beckman Coulter Inc., Fullerton, CA). All binding experiments were performed in duplicate and repeated at least three times. The inhibitory constant Ki values (in nM) were calculated from the competition binding curves by nonlinear regression analysis and the Cheng–Prusoff equation.[16]

human MOP receptor = target: T3, human MOP receptor (Homo sapiens, UniProt P35372); experiment: Competition binding assay, CHO-hMOP cell membranes, [3H]DAMGO; settings: mean ± SEM, read-out: receptor binding affinity Ki MOP
T3 construct: expressed in transfected cells; host or cells: CHO-hMOP cells (gift of Dr. Lawrence Toll, SRI International)
Method: as §1, §2

human KOP receptor [3] = target: T1, human KOP receptor; experiment: Competition binding assay, CHO-hKOP cell membranes, [3H]U69,593; settings: for Ki: CHO-hKOP membranes, mean ± SEM, read-out: receptor binding affinity Ki KOP; for selectivity DOP/KOP: Ki ratio DOP/KOP; for selectivity MOP/KOP: Ki ratio MOP/KOP
Method: as §1
as §2, with “Nonspecific” for “. Nonspecific”

[4] = percentage stimulation relative to the KOP full agonist U69,593

Cl.Oc1cccc(CCN(CCc2ccccc2)Cc2ccccc2)c1 [Compound 5, 3-[2-[(Benzyl)(phenethyl)amino]ethyl]phenol Hydrochloride]
ED50 ([1]; sc): 1.21 mg/kg
EC50 (human KOP receptor [2]): 4.65 ± 1.63 nM
Emax (human KOP receptor [2]; [4]): ≥ 80%
Ki (human DOP receptor): 1860 ± 501 nM
Ki (human MOP receptor): 463 ± 95 nM
Ki (human KOP receptor [3]): 0.71 ± 0.25 nM
selectivity DOP/KOP (human KOP receptor [3]): 2623
selectivity MOP/KOP (human KOP receptor [3]): 652

Cl.Oc1ccc(CCN(CCc2cccc(O)c2F)CC2CCC2)cc1 [Compound 21, 3-[2-[(Cyclobutylmethyl)(4-hydroxyphenethyl)amino]ethyl]-2-fluorophenol Hydrochloride]
ED50 ([1]; sc): 2.14 mg/kg
EC50 (human KOP receptor [2]): 36.7 ± 14 nM
Emax (human KOP receptor [2]; [4]): 69.1 ± 1.9%
Ki (human DOP receptor): 1310 ± 281 nM
Ki (human MOP receptor): 523 ± 33 nM
Ki (human KOP receptor [3]): 3.37 ± 1.54 nM
selectivity DOP/KOP (human KOP receptor [3]): 389
selectivity MOP/KOP (human KOP receptor [3]): 155
increase in selectivity KOP vs DOP compared to compound 14 (human KOP receptor [3]; selectivity ratio comparison): 3 fold
increase in selectivity KOP vs MOP compared to compound 14 (human KOP receptor [3]; selectivity ratio comparison): 31 fold

C=CCN(CCc1cccc(O)c1)CCc1cccc(O)c1.Cl [Compound 10, 3,3′-[2,2′-(Allylazanediyl)bis(ethane-2,1-diyl)]diphenol Hydrochloride]
EC50 (human KOP receptor [2]): 154 ± 62 nM
[35S]GTPγS KOP % stim (human KOP receptor [2]; [4]): 37.5 ± 0.6%
Emax (human KOP receptor [2]; [4]): 37.5%
Ki (human DOP receptor): 738 ± 16 nM
Ki (human MOP receptor): 358 ± 28 nM
Ki (human KOP receptor [3]): 19.1 ± 0.6 nM
selectivity DOP/KOP (human KOP receptor [3]): 39
selectivity MOP/KOP (human KOP receptor [3]): 19

Cl.Oc1cccc(CCN(CCc2cccc(O)c2)CC2CC2)c1 [Compound 9, 3,3′-[2,2′-(Cyclopropylmethylazanediyl)bis(ethane-2,1-diyl)]diphenol Hydrochloride]
ED50 ([1]; sc): 4.73 mg/kg
EC50 (human KOP receptor [2]): 20.6 ± 0.6 nM
Emax (human KOP receptor [2]; [4]): 51.3 ± 7.6%
Ki (human DOP receptor): 2850 ± 720 nM
Ki (human MOP receptor): 631 ± 215 nM
Ki (human KOP receptor [3]): 4.62 ± 0.11 nM
selectivity DOP/KOP (human KOP receptor [3]): 617
selectivity MOP/KOP (human KOP receptor [3]): 137

Cl.Oc1cccc(CCN(CCc2cccc(O)c2)CC2CCC2)c1 [Compound 8, 3,3′-[2,2′-(Cyclobutylmethylazanediyl)bis(ethane-2,1-diyl)]diphenol Hydrochloride]
ED50 ([1]; sc): 1.71 mg/kg
EC50 (human KOP receptor [2]): 4.44 ± 1.36 nM
Emax (human KOP receptor [2]; [4]): 71.1 ± 5.2%
Ki (human DOP receptor): 3340 ± 844 nM
Ki (human MOP receptor): 230 ± 43 nM
Ki (human KOP receptor [3]): 0.38 ± 0.09 nM
selectivity DOP/KOP (human KOP receptor [3]): 8789
selectivity MOP/KOP (human KOP receptor [3]): 605

CC(C)CCN(CCc1ccccc1)CCc1cccc(O)c1.Cl [Compound 7, 3-[2-[(Isoamyl)(phenethyl)amino]ethyl]phenol Hydrochloride]
ED50 ([1]; sc): 2.78 mg/kg
EC50 (human KOP receptor [2]): 22.1 ± 3.1 nM
Emax (human KOP receptor [2]; [4]): 74.7 ± 3.6%
Ki (human DOP receptor): 2740 ± 677 nM
Ki (human MOP receptor): 259 ± 86 nM
Ki (human KOP receptor [3]): 2.69 ± 0.43 nM
selectivity DOP/KOP (human KOP receptor [3]): 1020
selectivity MOP/KOP (human KOP receptor [3]): 96

Cl.Oc1cccc(CCN(CCc2cccc(O)c2)CC2CCCC2)c1 [Compound 12, 3,3′-[2,2′-(Cyclopentylmethylazanediyl)bis(ethane-2,1-diyl)]diphenol Hydrochloride]
ED50 ([1]; sc): 1.19 mg/kg
reduction in antinociceptive potency vs compound 3 ([1]; sc, ED50 comparison): about 2 fold
EC50 (human KOP receptor [2]): 13.7 ± 3.5 nM
decrease in in vitro agonist potency vs compound 3 (human KOP receptor [2]; EC50 comparison): about 3 fold
Emax (human KOP receptor [2]; [4]): ≥ 80%
Ki (human DOP receptor): 2780 ± 545 nM
Ki (human MOP receptor): 584 ± 119 nM
Ki (human KOP receptor [3]): 0.31 ± 0.04 nM
selectivity DOP/KOP (human KOP receptor [3]): 8952
selectivity MOP/KOP (human KOP receptor [3]): 1884

Cl.Oc1ccc(CCN(CCc2cccc(O)c2)CC2CC2)cc1 [Compound 17, 3-[2-[(Cyclopropylmethyl)(4-hydroxyphenethyl)amino]ethyl]phenol Hydrochloride]
agonist activity in vivo (effect on pain behavior alone) ([1]; 10 mg/kg sc, compared to control mice): did not affect pain behavior
antagonism of U50,488-induced antinociception ([1]; 17 10 mg/kg sc 15 min before U50,488 2 mg/kg sc): complete reversal of U50,488-induced analgesia
Kd (human KOP receptor [2]; antagonist Ke at the KOP receptor against U69,593): 24.3 ± 1.5 nM
functional activity profile at the KOP receptor (human KOP receptor [2]; in vitro, [35S]GTPγS): KOP antagonism
Ki (human DOP receptor): > 10000 nM
Ki (human MOP receptor): 460 ± 127 nM
Ki (human KOP receptor [3]): 3.56 ± 0.94 nM
selectivity DOP/KOP (human KOP receptor [3]): >2800
selectivity MOP/KOP (human KOP receptor [3]): 129

C=CCN(CCc1ccc(O)cc1)CCc1cccc(O)c1 [Compound 16]
EC50 (human KOP receptor [2]): 248 ± 89 nM
Emax (human KOP receptor [2]; [4]): 28.5%
Ki (human DOP receptor): 1100 ± 485 nM
Ki (human MOP receptor): 192 ± 17 nM
Ki (human KOP receptor [3]): 43.5 ± 1.5 nM
selectivity DOP/KOP (human KOP receptor [3]): 25
selectivity MOP/KOP (human KOP receptor [3]): 4

Cl.Oc1ccc(CCN(CCc2cccc(O)c2)CC2CCCCC2)cc1 [Compound 15, 3-[2-[(Cyclohexylmethyl)(4-hydroxyphenethyl)amino]ethyl]phenol Hydrochloride]
ED50 ([1]; sc): 1.9 mg/kg
EC50 (human KOP receptor [2]): 22.2 ± 7.2 nM
Emax (human KOP receptor [2]; [4]): ≥ 80%
Ki (human DOP receptor): 1640 ± 557 nM
Ki (human MOP receptor): 234 ± 112 nM
Ki (human KOP receptor [3]): 1.85 ± 0.07 nM

Cl.Oc1ccc(CCN(CCc2cccc(O)c2)CC2CCC2)cc1 [Compound 14, 3-[2-[(Cyclobutylmethyl)(4-hydroxyphenethyl)amino]ethyl]phenol Hydrochloride]
ED50 ([1]; sc): 1.73 mg/kg
EC50 (human KOP receptor [2]): 22.2 ± 3.6 nM
Emax (human KOP receptor [2]; [4]): 76.4 ± 1.1%
Ki (human DOP receptor): 428 ± 93 nM
Ki (human MOP receptor): 16.1 ± 4.7 nM
Ki (human KOP receptor [3]): 3.43 ± 0.75 nM
selectivity DOP/KOP (human KOP receptor [3]): 125
selectivity MOP/KOP (human KOP receptor [3]): 5

c1ccc(CCN(CCc2ccccc2)CC2CCC2)cc1 [Compound 22, N-(Cyclobutylmethyl)-N-phenethyl-2-phenylethanamine]
EC50 (human KOP receptor [2]): 359 ± 116 nM
Emax (human KOP receptor [2]; [4]): ≥ 80%
Ki (human DOP receptor): 2180 ± 881 nM
Ki (human MOP receptor): 1060 ± 263 nM
Ki (human KOP receptor [3]): 79.1 ± 12.5 nM
selectivity DOP/KOP (human KOP receptor [3]): 28
selectivity MOP/KOP (human KOP receptor [3]): 13

Cl.Oc1cccc(CCN(CCc2ccccc2)C2CCC2)c1 [Compound 6, 3-[2-[(Cyclobutyl)(phenethyl)amino]ethyl]phenol Hydrochloride]
EC50 (human KOP receptor [2]): 46.1 ± 13.9 nM
Emax (human KOP receptor [2]; [4]): 50.7 ± 5%
Ki (human DOP receptor): 3540 ± 38 nM
Ki (human MOP receptor): 670 ± 174 nM
Ki (human KOP receptor [3]): 10.3 ± 1.2 nM
selectivity DOP/KOP (human KOP receptor [3]): 344
selectivity MOP/KOP (human KOP receptor [3]): 65
